For assay [1], the system named is retinoic acid-induced osteoporosis rats. The assay can be described thus: CT detection of bone microstructure of thigh bone in retinoic acid-induced osteoporosis rats. The class given is in vivo, SD rats. The note with it: RA-induced osteoporosis rats, 12 w. Here is the method:
The data were represented by mean value±standard error. After the experiment was completed, thigh bone on the right side of rats were collected, and subjected to CT detection, and […] (BV/TV), the number of trabeculae (TbN) and trabeculae spacing (TbSp) were calculated, and the results were shown in Table 4. An example was selected from each of Control group, Model group, abaloptide group, 20 μg/kg dosage group of Example 1, 20 μg/kg dosage group of Example 2 and 20 μg/kg dosage group of Example 5, and the scanned figures by micron X-ray 3D imaging system of trochlea of their thigh bone were shown in FIG. 1.

The test system is the same in assay [2]. The assay is described as follows: Three-point mechanical test of thigh bone in retinoic acid-induced osteoporosis rats. The class given is in vivo, SD rats. As to conditions: 12 w; for Peak load of three-point mechanics (thigh bone): RA-induced osteoporosis rats.
Procedure: Experimental method: SD rats were administered by gavage to induce a rat osteoporosis model. After model establishment, the rats were randomly grouped according to bone mineral densities of thigh bone: (1) vehicle group (Control group): normal saline was subcutaneously administered in an equal volume to the test compound, and soybean oil was administered by gavage in an equal volume to retinoic acid; (2) Model group: normal saline of the same volume was subcutaneously administered; and administered with retinoic acid (RA) by gavage every other day to maintain osteoporosis state; (3) 20 μg dosage group of positive drug abaloptide (Aba-20): 10 μg/kg abaloptide was subcutaneously administered, and retinoic acid was administered by gavage every other day. Administration groups of three dosages were set for each test compound. −10 μg/kg dosage group of the test compound: 10 μg/kg test compound was subcutaneously administered, and retinoic acid was administered by gavage every other day. −20 μg/kg dosage group of the test compound: 20 μg/kg test compound was subcutaneously administered, and retinoic acid was administered by gavage every other day. −40 μg/kg dosage group of the test compound: 40 μg/kg test compound was subcutaneously administered, and retinoic acid was administered by gavage every other day. The administration was carried out 5 times a week, with normal saline as the diluent of test drug, and the administration successively lasted for 12 weeks. The induction dosage of retinoic acid was about 80 mg/kg and the maintenance dosage after model establishment was about 30 mg/Kg, and solvent of inducing agent was soybean oil. […] The thigh bone on the left was subjected to three-point bending test, and the thigh bone on the right was subjected to CT scan and was used to prepare a pathological section. Statistical analysis of data: the data were treated with SPSS 20 software. The data in line with normality test were subjected to one-way analysis of variance; and the data not in line with normality test were subjected to rank sum test. The data were represented by mean value±standard error.
Assay [3] has as its system ovary removed SD rats (OVX induced rat osteoporosis model). The assay is described as follows: Bone mineral density (DXA) in ovariectomy-induced osteoporosis rats. The class given is in vivo. The note with it: for 0 w Bone mineral density lumbar vertebra / 0 w Bone mineral density thigh bone: 0 w (before administration, baseline); for 25 w Bone mineral density lumbar vertebra / 25 w Bone mineral density thigh bone / 0-25 w percentage of change % lumbar vertebra (bone mineral density) / 0-25 w percentage of change % thigh bone (bone mineral density): 5 times a week; for 0-25 w percentage of change % lumbar vertebra (bone mineral density) / 0-25 w percentage of change % thigh bone (bone mineral density): 25 w vs before administration. The source says: The animals had free access to water. […] 1) Bone mineral density (BMD) was detected with a dual-energy X-ray bone densitometry (DXA) before model establishment (−13 w), before administration (0 w), and 6 w, 12 w, 25 w, 37 w and 49 w after administration. […] The data were represented by mean value±standard error. Percentage of bone mineral density change=(bone mineral density at the detection time point−bone density before administration)/bone density before administration*100%

Setting [4] is: 5 μg/kg subcutaneous, listed as abaloptide.

Turning to “Ala-Val-Ser-Glu-His-Gln-Leu-Leu-His-Asp-Lys-Gly-Lys-Ser-Ile-Gln-Asp-Leu-Arg-Arg-Arg-Glu-Leu-Leu-Glu-Lys-Leu-Leu-Ala-Lys-Leu-His-Thr-Ala-Tyr-Arg-Gly-Phe-Gly-Gly (AVSEHQLLHDKGKSIQDLRRRELLEKLLAKLHTAYRGFGG; The sequence is synthesized) [Example 3]”, the entries for the “BV/TV (CT, thigh bone)” value in assay [1] (10 μg/kg subcutaneous), in assay [1] (20 μg/kg subcutaneous) and in assay [1] (40 μg/kg subcutaneous) were 0.33, 0.30 and 0.39, respectively. The “TbN, number of trabeculae (CT, thigh bone)” value in assay [1] (10 μg/kg subcutaneous) was found to be 4.17 mm^−1; in assay [1] (20 μg/kg subcutaneous) it was 4.21 mm^−1; in assay [1] (40 μg/kg subcutaneous) it was 4.22 mm^−1. The figures for the “TbSp, trabeculae spacing (CT, thigh bone)” value in assay [1] (10 μg/kg subcutaneous), in assay [1] (20 μg/kg subcutaneous) and in assay [1] (40 μg/kg subcutaneous) were 0.20 mm, 0.17 mm and 0.15 mm, respectively. In addition, the figures for the “Peak load of three-point mechanics (thigh bone)” value in assay [2] (10 μg/kg subcutaneous), in assay [2] (20 μg/kg subcutaneous) and in assay [2] (40 μg/kg subcutaneous) were 97.65 N, 126.54 N and 131.74 N, respectively. The “0 w Bone mineral density lumbar vertebra” value in assay [3] (2.5 μg/kg group) stood at 0.24 ± 0 g/cm^2; in assay [3] (5 μg/kg group) it was 0.24 ± 0 g/cm^2; in assay [3] (10 μg/kg group), 0.24 ± 0.01 g/cm^2. In addition, the “0 w Bone mineral density thigh bone” value in assay [3] (2.5 μg/kg group), in assay [3] (5 μg/kg group) and in assay [3] (10 μg/kg group) was 0.23 ± 0 g/cm^2 each time. Besides, the “25 w Bone mineral density lumbar vertebra” value in assay [3] (2.5 μg/kg subcutaneous) is recorded as 0.27 ± 0 g/cm^2; in assay [3] (5 μg/kg subcutaneous), 0.29 ± 0.01 g/cm^2; in assay [3] (10 μg/kg subcutaneous) it was 0.29 ± 0.01 g/cm^2. Further, the “25 w Bone mineral density thigh bone” value in assay [3] (2.5 μg/kg subcutaneous) turned out to be 0.26 ± 0 g/cm^2; in assay [3] (5 μg/kg subcutaneous), 0.29 ± 0.02 g/cm^2; in assay [3] (10 μg/kg subcutaneous) it was 0.29 ± 0 g/cm^2. Moreover, the “0-25 w percentage of change % lumbar vertebra (bone mineral density)” value was 12.4 ± 2.2 % in assay [3] (2.5 μg/kg subcutaneous), 20.41 ± 2.56 % in assay [3] (5 μg/kg subcutaneous) and 22.46 ± 2.25 % in assay [3] (10 μg/kg subcutaneous). For the same substance, the “0-25 w percentage of change % thigh bone (bone mineral density)” value (shortened to “0-25 w percentage of change % thigh bone”) is reported as 14.03 ± 1.81 % in assay [3] (2.5 μg/kg subcutaneous), 27.19 ± 1.33 % in assay [3] (5 μg/kg subcutaneous) and 28.7 ± 1.6 % in assay [3] (10 μg/kg subcutaneous).
With abaloptide [reference compound], in assay [1] (20 μg/kg subcutaneous), the “BV/TV (CT, thigh bone)” value came out at 0.28; the “TbN, number of trabeculae (CT, thigh bone)” value is on record as 3.4 mm^−1; the “TbSp, trabeculae spacing (CT, thigh bone)” value is reported as 0.22 mm. The “peak load of thigh bone compared with Model group” value in assay [2] (20 μg/kg dosage group) is “did not significantly increase”. The “Peak load of three-point mechanics (thigh bone)” value in assay [2] (20 μg/kg subcutaneous) was 119.57 N. In assay [3] (5 μg/kg group), the “0 w Bone mineral density lumbar vertebra” value is 0.24 ± 0 g/cm^2 and the “0 w Bone mineral density thigh bone” value was 0.23 ± 0 g/cm^2. For the same substance, in assay [3] (5 μg/kg subcutaneous), the “25 w Bone mineral density lumbar vertebra” value is reported as 0.3 ± 0 g/cm^2, the “25 w Bone mineral density thigh bone” value is given as 0.3 ± 0 g/cm^2, the “0-25 w percentage of change % lumbar vertebra (bone mineral density)” value was 21.66 ± 2.12 % and the “0-25 w percentage of change % thigh bone” value is 30.28 ± 2 %. Also, in assay [3] (setting [4]), the “0-25 w percentage of change % lumbar vertebra (bone mineral density)” value was 21.66±2.12% and the “0-25 w percentage of change % thigh bone” value is given as 30.28±2%.
